Data published in patent US20230039219A1, “Improved Cell-Permeable Nuclear Import Inhibitor Synthetic Peptide for Inhibition of Cytokine Storm or Inflammatory Disease and Use Thereof” (priority 2020, published 2023).
Bridge positions count the residues as written; N and C are the ends. Ends that are not written are not given here. Peptide text beside a SMILES is read from it.

Experiments:
[1] = test system: LPS/D-Gal acute liver injury model; assay: LPS/D-galactosamine-induced acute liver injury model; details: LPS/D-Gal challenge; FIG. 1, 2, 4
[2] = parameters: species or system C57BL/6 mice; details: mouse, in vivo, iv
Protocol: To evaluate the pharmacokinetics of iCP-NI in the lungs, 6-8 weeks old C57BL/6 mice were intravenously administered with 100 mg/kg of FITC-conjugated iCP-NI. Subsequently, mice were sacrificed at various time points and lung tissues were obtained for pharmacokinetic analysis. Also, other tissues (brain, heart, liver, spleen, kidney, small/large intestine and pancreas) were collected for distribution of iCP-NI analysis. Representative lung tissue specimens were perfusion-fixed with 4% paraformaldehyde (PFA; BIOSESANG, Cat No. PC2031-100-00) and incubated in 30% sucrose solution overnight at 4° C. Next, specimens were embedded in optimal cutting temperature (OCT) compound (Leica Biosystems, Cat No. 3801480) and cryo-sectioned to a 10 μm thickness onto microscope glass slide. The cryo-sectioned samples were washed thoroughly with PBS and incubated with ammonium chloride (NH4Cl, Sigma-Aldrich, Cat No. A9434) solution for 20 minutes at room temperature (RT). The samples were mounted with DAPI-containing mounting solution (Invitrogen, Cat No. 00-4959-52) and visualized by fluorescence microscopy using a confocal laser scanning microscope system (Leica SP8) and the images were processed with Leica LAS X software).

1NLS: linear nuclear localization sequence from NF-κB1 (p50); Table 1 prints VQRKRQKLMP (SEQ ID NO. 8) (NLS) [Structure 1NLS]
effect on survival, comparison in words [1]: not enhanced

CC[C@H](C)[C@H](N)C(=O)N[C@@H](C)C(=O)N[C@@H](C)C(=O)N[C@H](C(=O)N[C@@H](CC(C)C)C(=O)N[C@@H](C)C(=O)N[C@@H](C)C(=O)N1CCC[C@H]1C(=O)N[C@@H](C)C(=O)N[C@@H](CC(C)C)C(=O)N[C@H](C(=O)N1CCC[C@H]1C(=O)N[C@H]1CSSC[C@@H](C(=O)O)NC(=O)[C@@H]2CCCN2C(=O)[C@H](CCSC)NC(=O)[C@H](CC(C)C)NC(=O)[C@H](CCCCN)NC(=O)[C@H](CCC(N)=O)NC(=O)[C@H](CCCNC(=N)N)NC(=O)[C@H](CCCCN)NC(=O)[C@H](CCCNC(=N)N)NC(=O)[C@H](CCC(N)=O)NC(=O)[C@H](C(C)C)NC1=O)C(C)C)C(C)C [iCP-NI] (H-IAAVLAAPALVPCVQRKRQKLMPC-OH; disulfide 13-24; N-terminus and C-terminus assumed)
time high levels remained in lung tissue [2]: ≥ 8 h

cNLS: circular NLS CVQRKRQKLMPC (SEQ ID NO. 1), no aMTD (also: cyclised, mode not given here)
effect on survival, comparison in words [1]: not enhanced
